In ChEMBL document CHEMBL3526121, “Pharmacokinetics, bioavailability, tissue distribution, excretion, and metabolite identification of methoxyflavones in Kaempferia parviflora extract in rats” (Drug Metab Dispos, 2012):

What was measured:
[1] = Cmax in Wistar rat lung at 750 mg/kg, po by LC-MS/MS analysis; assay type: ADME, organism-based; design: dose 750 mg/kg, route oral
[2] = Drug excretion in Wistar rat urine at 750 mg/kg, po after 24 to 72 hrs by HPLC-UV analysis; assay type: ADME, organism-based; design: dose 750 mg/kg, route oral; settings: in vivo
[3] = Clearance in Wistar rat at 250 mg/kg, iv by HPLC analysis; assay type: ADME, organism-based; design: dose 250 mg/kg, route intravenous; settings: in vivo
[4] = AUC (0.083 to 4 hrs) in Wistar rat testes at 750 mg/kg, po by LC-MS/MS analysis; assay type: ADME, organism-based, Testis; design: time 0.083-4 hr, dose 750 mg/kg, route oral; settings: in vivo
[5] = Tmax in Wistar rat liver at 750 mg/kg, po by LC-MS/MS analysis; assay type: ADME, organism-based; design: dose 750 mg/kg, route oral
[6] = Oral bioavailability in Wistar rat at 250 mg/kg by HPLC analysis; assay type: ADME, organism-based; settings: in vivo
[7] = Half life in Wistar rat at 250 mg/kg, po by HPLC analysis; assay type: ADME, organism-based; design: dose 250 mg/kg, route oral; settings: in vivo
[8] = tested on: Liver; test: AUC (0.083 to 4 hrs) in Wistar rat liver at 750 mg/kg, po by LC-MS/MS analysis; assay type: ADME, organism-based; design: time 0.083-4 hr, dose 750 mg/kg, route oral; settings: in vivo
[9] = Drug excretion in Wistar rat urine at 750 mg/kg, po after up to 72 hrs by HPLC-UV analysis; assay type: ADME, organism-based; design: dose 750 mg/kg, route oral; settings: read-out: Drug excretion
[10] = tested on: Rattus norvegicus; test: Volume of distribution in Wistar rat at 250 mg/kg, po by HPLC analysis; assay type: ADME, organism-based; design: dose 250 mg/kg, route oral; settings: in vivo
[11] = Drug excretion in Wistar rat feces at 750 mg/kg, po after 18 to 24 hrs by HPLC-UV analysis; assay type: ADME, organism-based; design: dose 750 mg/kg, route oral; settings: in vivo
[12] = Drug metabolism in Wistar rat assessed as excretion of 2-(3-hydroxy-4-methoxyphenyl)-3,5,7-trimethoxy-4H-chromen-4-one in urine at 750 mg/kg, po by LC-MS and LC-MS/MS analysis; assay type: ADME, organism-based; design: dose 750 mg/kg, route oral; settings: in vivo
[13] = AUC in Wistar rat at 250 mg/kg, iv by HPLC analysis; assay type: ADME, organism-based; design: dose 250 mg/kg, route intravenous; settings: plasma
[14] = Cmax in Wistar rat liver at 750 mg/kg, po by LC-MS/MS analysis; assay type: ADME, organism-based; design: dose 750 mg/kg, route oral
[15] = tested on: Rattus norvegicus; test: Absorption rate constant in Wistar rat at 250 mg/kg, po by HPLC analysis; assay type: ADME, organism-based; design: dose 250 mg/kg, route oral; settings: in vivo
[16] = tested on: Brain; test: AUC (0.083 to 4 hrs) in Wistar rat brain at 750 mg/kg, po by LC-MS/MS analysis; assay type: ADME, organism-based; design: time 0.083-4 hr, dose 750 mg/kg, route oral; settings: in vivo
[17] = Drug metabolism in Wistar rat assessed as excretion of 5-hydroxy-2-(3-hydroxy-4-methoxyphenyl)-3,7-dimethoxy-4H-chromen-4-one in urine/feces at 750 mg/kg, po by LC-MS and LC-MS/MS analysis; assay type: ADME, organism-based; design: dose 750 mg/kg, route oral; settings: in vivo
[18] = Cmax in Wistar rat at 250 mg/kg, po by HPLC analysis; assay type: ADME, organism-based; design: dose 250 mg/kg, route oral; settings: in vivo
[19] = tested on: Rattus norvegicus; test: Elimination rate constant in Wistar rat at 250 mg/kg, iv by HPLC analysis; assay type: ADME, organism-based; design: dose 250 mg/kg, route intravenous; settings: in vivo
[20] = tested on: Rattus norvegicus; test: Half life in Wistar rat at 250 mg/kg, iv by HPLC analysis; assay type: ADME, organism-based; design: dose 250 mg/kg, route intravenous; settings: in vivo
[21] = Drug metabolism in Wistar rat assessed as excretion of 3,5-dihydroxy-2-(3-hydroxy-4-methoxyphenyl)-7-methoxy-4H-chromen-4-one in feces at 750 mg/kg, po by LC-MS and LC-MS/MS analysis; assay type: ADME, organism-based; design: dose 750 mg/kg, route oral; settings: in vivo
[22] = Tmax in Wistar rat at 250 mg/kg, po by HPLC analysis; assay type: ADME, organism-based; design: dose 250 mg/kg, route oral; settings: in vivo
[23] = Tmax in Wistar rat kidney at 750 mg/kg, po by LC-MS/MS analysis; assay type: ADME, organism-based; design: dose 750 mg/kg, route oral
[24] = Cmax in Wistar rat kidney at 750 mg/kg, po by LC-MS/MS analysis; assay type: ADME, organism-based; design: dose 750 mg/kg, route oral
[25] = tested on: Kidney; test: AUC (0.083 to 4 hrs) in Wistar rat kidney at 750 mg/kg, po by LC-MS/MS analysis; assay type: ADME, organism-based; design: time 0.083-4 hr, dose 750 mg/kg, route oral; settings: in vivo
[26] = Tmax in Wistar rat testes at 750 mg/kg, po by LC-MS/MS analysis; assay type: ADME, organism-based, Testis; design: dose 750 mg/kg, route oral
[27] = Drug excretion in Wistar rat feces at 750 mg/kg, po after up to 72 hrs by HPLC-UV analysis; assay type: ADME, organism-based; design: dose 750 mg/kg, route oral; settings: faeces, read-out: Drug excretion
[28] = Cmax in Wistar rat testes at 750 mg/kg, po by LC-MS/MS analysis; assay type: ADME, organism-based, Testis; design: dose 750 mg/kg, route oral
[29] = Tmax in Wistar rat brain at 750 mg/kg, po by LC-MS/MS analysis; assay type: ADME, organism-based; design: dose 750 mg/kg, route oral
[30] = Tmax in Wistar rat lung at 750 mg/kg, po by LC-MS/MS analysis; assay type: ADME, organism-based; design: dose 750 mg/kg, route oral
[31] = Drug excretion in Wistar rat urine at 750 mg/kg, po after 12 hrs by HPLC-UV analysis; assay type: ADME, organism-based; design: dose 750 mg/kg, route oral; settings: in vivo
[32] = Clearance in Wistar rat at 250 mg/kg, po by HPLC analysis; assay type: ADME, organism-based; design: dose 250 mg/kg, route oral; settings: in vivo
[33] = AUC in Wistar rat at 250 mg/kg, po by HPLC analysis; assay type: ADME, organism-based; design: dose 250 mg/kg, route oral; settings: plasma
[34] = Elimination rate constant in Wistar rat at 250 mg/kg, po by HPLC analysis; assay type: ADME, organism-based; design: dose 250 mg/kg, route oral; settings: in vivo, read-out: Ke (converted)
[35] = tested on: Lung; test: AUC (0.083 to 4 hrs) in Wistar rat lung at 750 mg/kg, po by LC-MS/MS analysis; assay type: ADME, organism-based; design: time upper 4 hr, time lower 0.083 hr, dose 750 mg/kg, route oral; settings: in vivo
[36] = Cmax in Wistar rat brain at 750 mg/kg, po by LC-MS/MS analysis; assay type: ADME, organism-based; design: dose 750 mg/kg, route oral
[37] = Drug excretion in Wistar rat feces at 750 mg/kg, po after 12 hrs by HPLC-UV analysis; assay type: ADME, organism-based; design: dose 750 mg/kg, route oral; settings: in vivo

COc1cc(OC)c2c(=O)c(OC)c(-c3ccc(OC)c(OC)c3)oc2c1
Cmax [1]: 2230 ng/g
Drug excretion [2]: Active
clearance [3]: 0.359 mL/min
AUC [4]: 1.01 µg·h/g
Tmax [5]: 3.43 h
bioavailability [6]: 3.32%
half-life [7]: 3.12 h
AUC [8]: 9.07 µg·h/g
dose excreted at 72 h [9]: 1.06%
Vd [10]: 2637.13 mL
Drug excretion [11]: Active
Drug metabolism [12]: metabolite_detected
AUC [13]: 76800 ng·h/mL
Cmax [14]: 3100 ng/g
ka [15]: 1.23 h⁻¹
AUC [16]: 0.76 µg·h/g
Drug metabolism [17]: metabolite_detected
Cmax [18]: 550 ng/mL
Ke [19]: 0.61 h⁻¹
t1/2 [20]: 2.36 h
Drug metabolism [21]: metabolite_detected
Tmax [22]: 1.71 h
Tmax [23]: 3.43 h
Cmax [24]: 1000 ng/g
AUC [25]: 2.03 µg·h/g
Tmax [26]: 2.36 h
dose excreted at 72 h [27]: 0.79%
Cmax [28]: 500 ng/g
Tmax [29]: 3.14 h
Tmax [30]: 4.8 min
Drug excretion [31]: Active
CL/F [32]: 10.4 mL/min
AUC [33]: 3650 ng·h/mL
k el [34]: 7.78e-05 s⁻¹
AUC [35]: 1.6 µg·h/g
Cmax [36]: 260 ng/g
Drug excretion [37]: Active
